Test results: patent US10800784B2, “Nitrogen-containing heterocyclic amide compound and pharmaceutical use thereof” (Japan Tobacco Inc., priority 2018, dated 2020)

Key:
human PDHK2 (hPDHK2) = human PDHK2 (hPDHK2) (Homo sapiens (Human), UniProt Q15119); assay: Inhibitory action of PDHK2 activity in vitro (residual PDH activity after PDHK reaction); assay type: biochemical; conditions: for IC50: PDH/hPDHK2 complex solution, PDHK reaction at room temperature for 45 min, NADH absorbance at 340 nm, read-out: kPDK2 IC50
Procedure, shortened: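 Indirect assay: FLAG-tagged hPDHK2 (0.5 μg/mL) precomplexed overnight at 4 °C with PDH (0.025 U/mL), then kinase reaction with compound and ATP 45 min at room temperature, pH 7.0 MOPS buffer. Residual PDH activity measured after 90 min with pyruvate, CoA, NAD, TPP as NADH absorbance at 340 nm, corrected for compound effect on PDH-only blank.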

human PDHK1 (hPDHK1) = human PDHK1 (hPDHK1) (Homo sapiens (Human), UniProt Q15118); assay: Inhibitory action of PDHK1 activity in vitro (residual PDH activity after PDHK reaction); assay type: biochemical; conditions: for IC50: PDH/hPDHK1 complex solution, PDHK reaction at room temperature for 45 min, NADH absorbance at 340 nm, read-out: hPDK1 IC50; for inhibition at 0.003 µM: at 3 nmol/L, shown when IC50 value could not be calculated, read-out: hPDHK1 inhibitory rate at the lowest concentration of the test compound
Chain of human PDHK1 (hPDHK1) (Q15118 29-436): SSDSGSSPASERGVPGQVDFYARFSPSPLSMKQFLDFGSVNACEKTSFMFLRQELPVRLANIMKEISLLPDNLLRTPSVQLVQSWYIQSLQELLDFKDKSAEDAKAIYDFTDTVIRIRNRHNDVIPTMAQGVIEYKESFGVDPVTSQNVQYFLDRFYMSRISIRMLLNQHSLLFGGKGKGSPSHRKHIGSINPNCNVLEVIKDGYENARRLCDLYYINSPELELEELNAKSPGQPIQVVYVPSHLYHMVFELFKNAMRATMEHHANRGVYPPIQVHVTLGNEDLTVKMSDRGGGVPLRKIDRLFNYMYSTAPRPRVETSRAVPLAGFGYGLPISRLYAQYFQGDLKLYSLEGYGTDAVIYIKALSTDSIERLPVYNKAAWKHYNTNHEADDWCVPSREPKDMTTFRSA
Procedure, shortened: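 N-FLAG hPDHK1 (E. coli-expressed, 0.5 μg/mL) precomplexed overnight at 4 °C with porcine heart PDH (0.025 U/mL), then reacted 45 min at room temperature with compound and ATP (0.353 μmol/L as added) in MOPS pH 7.0 buffer. Residual PDH activity after 90 min with pyruvate, CoA, NAD, TPP read as NADH at 340 nm.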

| SMILES | IC50 (human PDHK2 (hPDHK2)) [nM] | IC50 (human PDHK1 (hPDHK1)) [nM] | inhibition at 0.003 µM (human PDHK1 (hPDHK1)) [%] | hPDHK2 inhibitory rate at the lowest concentration of the test compound (human PDHK2 (hPDHK2); lowest concentration of the test compound in the assay (<3 nmol/L), shown when IC50 value could not be calculated) [%] |
| --- | --- | --- | --- | --- |
| C[C@H]1CN(C(=O)c2ccnc(N3CCC(F)(F)CC3)c2)Cc2cnc([C@@](C)(O)C(F)(F)F)n21 [Example 95] | 15 | 6 | – | – |
| C[C@H]1CN(C(=O)c2ccnc(C3CC3)c2)Cc2cnc([C@@](C)(O)C(F)(F)F)n21 [Example 96] | 8 | 8 | – | – |
| C[C@H]1CN(C(=O)c2ncncc2-c2ccc(F)cc2)Cc2cnc([C@@](C)(O)C(F)(F)F)n21 [Example 97] | 26 | 63 | – | – |
| C[C@H]1CN(C(=O)c2cc(C3CC3)nc(C(F)(F)F)c2)Cc2cnc([C@@](C)(O)C(F)(F)F)n21 [Example 98] | 6 | 6 | – | – |
| C[C@H]1CN(C(=O)c2cc3n(n2)CCO3)Cc2onc([C@@](C)(O)C(F)(F)F)c21 [Example 99] | 12 | 8 | – | – |
| C[C@H]1CN(C(=O)c2cc3n(n2)CCC3)Cc2onc([C@@](C)(O)C(F)(F)F)c21 [Example 100] | 5 | 4 | – | – |
| CC(=O)N1CCc2ccccc2[C@H]1C(=O)N1Cc2onc([C@@](C)(O)C(F)(F)F)c2[C@@H](C)C1 [Example 107] | 6 | 5 | – | – |
| C[C@H]1CN(C(=O)c2ccn(C3CC3)n2)Cc2onc([C@@](C)(O)C(F)(F)F)c21 [Example 110] | 13 | 7 | – | – |
| C[C@H]1CN(C(=O)c2[nH]nc(C3CC3)c2Cl)Cc2onc([C@@](C)(O)C(F)(F)F)c21 [Example 112] | 5 | 3 | – | – |
| C[C@H]1CN(C(=O)c2cc(C3CC3)n(C)n2)Cc2onc([C@@](C)(O)C(F)(F)F)c21 [Example 113] | 5 | 4 | – | – |
| C[C@H]1CN(C(=O)c2cc(C#N)nn2C2CC2)Cc2onc([C@@](C)(O)C(F)(F)F)c21 [Example 114] | 7 | 5 | – | – |
| C[C@H]1CN(C(=O)c2nnc(C3CC3)o2)Cc2onc([C@@](C)(O)C(F)(F)F)c21 [Example 115] | 8 | 6 | – | – |
| C[C@H]1CN(C(=O)c2c(C#N)c(C3CC3)nn2C)Cc2onc([C@@](C)(O)C(F)(F)F)c21 [Example 117] | 8 | 6 | – | – |
| C[C@H]1CN(C(=O)c2cc(C3(C)CC3)n(C)n2)Cc2onc([C@@](C)(O)C(F)(F)F)c21 [Example 119] | 5 | 4 | – | – |
| C[C@H]1CN(C(=O)c2cc(-c3ccccc3)nn2C)Cc2nnc([C@@](C)(O)C(F)(F)F)n21 [Example 122, ((S)-5-methyl-3-((R)-1,1,1-trifluoro-2-hydroxypropan-2-yl)-5,6-dihydro-[1,2,4]triazolo[4,3-a]pyrazin-7(8H)-yl)(1-methyl-3-phenyl-1H-pyrazol-5-yl)methanone] | 7 | 5 | – | – |
| C[C@H]1CN(C(=O)c2cc(C3CC3)nn2C)Cc2nnc([C@@](C)(O)C(F)(F)F)n21 [Example 123] | 12 | 6 | – | – |

More lines, now with the values ahead:

| IC50 (human PDHK2 (hPDHK2)) [nM] | IC50 (human PDHK1 (hPDHK1)) [nM] | inhibition at 0.003 µM (human PDHK1 (hPDHK1)) [%] | hPDHK2 inhibitory rate at the lowest concentration of the test compound (human PDHK2 (hPDHK2); lowest concentration of the test compound in the assay (<3 nmol/L), shown when IC50 value could not be calculated) [%] | SMILES |
| --- | --- | --- | --- | --- |
| 4 | < 3 | 69 | – | C[C@H]1CN(C(=O)c2n[nH]c3ccccc23)Cc2onc([C@@](C)(O)C(F)(F)F)c21 [Example 101] |
| 4 | 4 | – | – | C[C@H]1CN(C(=O)c2cccc3[nH]ncc23)Cc2onc([C@@](C)(O)C(F)(F)F)c21 [Example 102] |
| < 3 | < 3 | 67 | 66 | C[C@H]1CN(C(=O)c2n[nH]c3c2CCC(C)(C)C3)Cc2onc([C@@](C)(O)C(F)(F)F)c21 [Example 103] |
| 6 | 4 | – | – | C[C@H]1CN(C(=O)c2n[nH]c3ccc(F)cc23)Cc2onc([C@@](C)(O)C(F)(F)F)c21 [Example 104] |
| 8 | 9 | – | – | C[C@H]1CN(C(=O)[C@H]2NCCc3ccccc32)Cc2onc([C@@](C)(O)C(F)(F)F)c21 [Example 105] |
| 4 | < 3 | 61 | – | C[C@H]1CN(C(=O)[C@@H]2c3ccccc3CCN2C)Cc2onc([C@@](C)(O)C(F)(F)F)c21 [Example 106] |
| 6 | 5 | – | – | C[C@H]1CN(C(=O)c2cc(C3CC3)nn2C)Cc2onc([C@@](C)(O)C(F)(F)F)c21 [Example 108] |
| 5 | < 3 | 53 | – | C[C@H]1CN(C(=O)c2ccnn2C2CC2)Cc2onc([C@@](C)(O)C(F)(F)F)c21 [Example 109] |
| 6 | 3 | – | – | C[C@H]1CN(C(=O)c2cc(C3CC3)n[nH]2)Cc2onc([C@@](C)(O)C(F)(F)F)c21 [Example 111, (3-cyclopropyl-1H-pyrazol-5-yl)((R)-4-methyl-3-((R)-1,1,1-trifluoro-2-hydroxypropan-2-yl)-4,7-dihydroisoxazolo[5,4-c]pyridin-6(5H)-yl)methanone] |
| 32 | 17 | – | – | C[C@H]1CN(C(=O)C(C)(C)c2ccc(C(=O)O)c(C3CC3)c2)Cc2onc([C@@](C)(O)C(F)(F)F)c21 [Example 116] |
| 4 | 4 | – | – | C[C@H]1CN(C(=O)c2cc(C3(C)CC3)nn2C)Cc2onc([C@@](C)(O)C(F)(F)F)c21 [Example 118] |
| 9 | 5 | – | – | C[C@H]1CN(C(=O)C(C)(C)c2ccc(-c3nn[nH]n3)cc2)Cc2onc([C@@](C)(O)C(F)(F)F)c21 [Example 120] |
| 5 | 5 | – | – | C[C@H]1CN(C(=O)c2cn(C)nc2C2CC2)Cc2onc([C@@](C)(O)C(F)(F)F)c21 [Example 121] |
